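Assay format: 96-well plates, 48-hour exposure. The concentration for 50% growth inhibition is given as GI50.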 Calls of active or inactive are those of the source. No stated cut-off is given here; in the data, active = GI50 up to about 1.1 µM and inactive = higher.
Legend:
Assay in all cases: DTP human tumour cell line panel, 48 h
UACC-257 = test system: UACC-257
HT-29 = test system: HT-29
HCC 2998 = test system: HCC 2998
SF-539 = test system: SF-539
M14 = test system: M14
SK-MEL-28 = test system: SK-MEL-28
SN12C = test system: SN12C
HL-60 = test system: HL-60
OVCAR-3 = test system: OVCAR-3
SK-MEL-2 = test system: SK-MEL-2
KM12 = test system: KM12
SF-295 = test system: SF-295
OVCAR-8 = test system: OVCAR-8
HOP-62 = test system: HOP-62
SNB-75 = test system: SNB-75
UACC-62 = test system: UACC-62
MCF7 = test system: MCF7
MDA-MB-435 = test system: MDA-MB-435
HOP-92 = test system: HOP-92

How did the GI50 (UACC-257) turn out when c1cnc2c(c1)-n1cccc1C1(CCCCC1)NN2 was run?
Its GI50 is 48.4 µM (inactive).

And the GI50 (HT-29)?
Its GI50 is > 100 µM (inactive).

What about the GI50 (HCC 2998) of the same molecule?
The GI50 was > 100 µM (inactive).

And the GI50 (SF-539)?
Its GI50 is > 100 µM (inactive).

And the GI50 (M14)?
Its GI50 is > 100 µM (inactive).

And the GI50 (SK-MEL-28)?
Its GI50 is > 100 µM (inactive).

And the GI50 (SN12C)?
Its GI50 is > 100 µM (inactive).

What about the GI50 (HL-60) of the same molecule?
The GI50 was 93.8 µM (inactive).

What about the GI50 (OVCAR-3) of the same molecule?
The GI50 was 86.3 µM (inactive).

What about the GI50 (SK-MEL-2) of the same molecule?
Its GI50 is > 100 µM (inactive).

What about the GI50 (KM12) of the same molecule?
Its GI50 is 99.1 µM (inactive).

And the GI50 (SF-295)?
The GI50 was 69.2 µM (inactive).

And the GI50 (OVCAR-8)?
The GI50 was > 100 µM (inactive).

What about the GI50 (HOP-62) of the same molecule?
Its GI50 is > 100 µM (inactive).

What about the GI50 (SNB-75) of the same molecule?
The GI50 was > 100 µM (inactive).

Which results are given for CC(=O)Nc1nc2c(=O)c3ccccc3sc2s1?
GI50 (UACC-257): > 100 µM (inactive); GI50 (HT-29): > 100 µM (inactive); GI50 (SF-539): > 100 µM (inactive); GI50 (M14): > 100 µM (inactive); GI50 (UACC-62): > 100 µM (inactive); GI50 (SN12C): > 100 µM (inactive); GI50 (HL-60): > 100 µM (inactive); GI50 (OVCAR-3): > 100 µM (inactive); GI50 (MCF7): 34.4 µM (inactive); GI50 (SK-MEL-2): > 100 µM (inactive); GI50 (KM12): > 100 µM (inactive); GI50 (SF-295): > 100 µM (inactive); GI50 (OVCAR-8): > 100 µM (inactive); GI50 (HOP-62): > 100 µM (inactive); GI50 (SNB-75): > 100 µM (inactive)

With CN(C)/C=N\c1nncc2[nH]nnc12 as the molecule, how does the GI50 (UACC-257) read?
The GI50 was > 100 µM (inactive).

What about the GI50 (HT-29) of the same molecule?
The GI50 was > 100 µM (inactive).

What about the GI50 (SF-539) of the same molecule?
Its GI50 is > 100 µM (inactive).

What about the GI50 (MDA-MB-435) of the same molecule?
The GI50 was > 100 µM (inactive).

What about the GI50 (M14) of the same molecule?
Its GI50 is > 100 µM (inactive).

What about the GI50 (UACC-62) of the same molecule?
Its GI50 is > 100 µM (inactive).

What about the GI50 (SK-MEL-28) of the same molecule?
Its GI50 is > 100 µM (inactive).

What about the GI50 (SN12C) of the same molecule?
Its GI50 is > 100 µM (inactive).

What about the GI50 (HL-60) of the same molecule?
The GI50 was 5.97 µM (inactive).

And the GI50 (OVCAR-3)?
Its GI50 is > 100 µM (inactive).

And the GI50 (MCF7)?
The GI50 was > 100 µM (inactive).

What about the GI50 (SK-MEL-2) of the same molecule?
The GI50 was > 100 µM (inactive).

What about the GI50 (KM12) of the same molecule?
The GI50 was > 100 µM (inactive).

And the GI50 (SF-295)?
The GI50 was > 100 µM (inactive).

And the GI50 (OVCAR-8)?
The GI50 was > 100 µM (inactive).

And the GI50 (HOP-62)?
Its GI50 is > 100 µM (inactive).

What about the GI50 (SNB-75) of the same molecule?
Its GI50 is > 100 µM (inactive).

For CCOC(=O)CCC(C(=O)OCC)n1nnc2cc(Nc3c(C)[n+]([O-])c4cc(F)c(OCC)cc4[n+]3[O-])ccc21 (stereo not drawn), which GI50 (UACC-257) is on record?
The GI50 was > 100 µM (inactive).

And the GI50 (HT-29)?
Its GI50 is > 100 µM (inactive).

What about the GI50 (SF-539) of the same molecule?
Its GI50 is 42.6 µM (inactive).

What about the GI50 (MDA-MB-435) of the same molecule?
The GI50 was > 100 µM (inactive).

What about the GI50 (M14) of the same molecule?
Its GI50 is > 100 µM (inactive).

What about the GI50 (UACC-62) of the same molecule?
Its GI50 is > 100 µM (inactive).

And the GI50 (SN12C)?
The GI50 was > 100 µM (inactive).

And the GI50 (HL-60)?
The GI50 was > 100 µM (inactive).

And the GI50 (OVCAR-3)?
The GI50 was > 100 µM (inactive).

What about the GI50 (MCF7) of the same molecule?
The GI50 was > 100 µM (inactive).

And the GI50 (SK-MEL-2)?
Its GI50 is 83.4 µM (inactive).

And the GI50 (KM12)?
Its GI50 is > 100 µM (inactive).

What about the GI50 (HOP-92) of the same molecule?
Its GI50 is 25.6 µM (inactive).

What about the GI50 (SF-295) of the same molecule?
Its GI50 is 40.9 µM (inactive).

What about the GI50 (OVCAR-8) of the same molecule?
The GI50 was 87.1 µM (inactive).

What about the GI50 (HOP-62) of the same molecule?
The GI50 was 22.2 µM (inactive).

And the GI50 (SNB-75)?
The GI50 was 37.4 µM (inactive).

How did the GI50 (UACC-257) turn out when Cc1ccc(S(=O)(=O)c2c(N)n(CCN(C)C)c3nc4ccccc4nc23)cc1 was run?
Its GI50 is 71.9 µM (inactive).

And the GI50 (HT-29)?
Its GI50 is > 100 µM (inactive).

What about the GI50 (HCC 2998) of the same molecule?
Its GI50 is > 100 µM (inactive).

What about the GI50 (SF-539) of the same molecule?
The GI50 was > 100 µM (inactive).

What about the GI50 (M14) of the same molecule?
Its GI50 is > 100 µM (inactive).

What about the GI50 (SK-MEL-28) of the same molecule?
The GI50 was > 100 µM (inactive).

What about the GI50 (SN12C) of the same molecule?
The GI50 was > 100 µM (inactive).

What about the GI50 (HL-60) of the same molecule?
The GI50 was > 100 µM (inactive).

What about the GI50 (OVCAR-3) of the same molecule?
The GI50 was > 100 µM (inactive).

And the GI50 (SK-MEL-2)?
The GI50 was > 100 µM (inactive).

What about the GI50 (KM12) of the same molecule?
Its GI50 is 45.1 µM (inactive).

What about the GI50 (HOP-92) of the same molecule?
The GI50 was > 100 µM (inactive).

And the GI50 (SF-295)?
Its GI50 is > 100 µM (inactive).

What about the GI50 (OVCAR-8) of the same molecule?
The GI50 was > 100 µM (inactive).

What about the GI50 (SNB-75) of the same molecule?
The GI50 was > 100 µM (inactive).

How did the GI50 (UACC-257) turn out when OC(c1ccccc1)(c1cccnc1)C(O)(c1ccccc1)c1cccnc1 (stereo not drawn) was run?
Its GI50 is > 100 µM (inactive).

And the GI50 (HT-29)?
Its GI50 is > 100 µM (inactive).

And the GI50 (SF-539)?
The GI50 was > 100 µM (inactive).

What about the GI50 (MDA-MB-435) of the same molecule?
The GI50 was > 100 µM (inactive).

What about the GI50 (M14) of the same molecule?
Its GI50 is > 100 µM (inactive).

And the GI50 (UACC-62)?
Its GI50 is > 100 µM (inactive).

And the GI50 (SN12C)?
Its GI50 is > 100 µM (inactive).

What about the GI50 (HL-60) of the same molecule?
Its GI50 is > 100 µM (inactive).

What about the GI50 (MCF7) of the same molecule?
Its GI50 is > 100 µM (inactive).

What about the GI50 (SK-MEL-2) of the same molecule?
The GI50 was > 100 µM (inactive).

And the GI50 (KM12)?
Its GI50 is > 100 µM (inactive).

And the GI50 (HOP-92)?
The GI50 was > 100 µM (inactive).

What about the GI50 (SF-295) of the same molecule?
Its GI50 is > 100 µM (inactive).

What about the GI50 (OVCAR-8) of the same molecule?
The GI50 was > 100 µM (inactive).

What about the GI50 (SNB-75) of the same molecule?
Its GI50 is > 100 µM (inactive).

CN1CC[C@@]2(c3cccc(O)c3)CC(=O)/C(=C/c3ccc(Cl)c(Cl)c3)[C@H]1C2 was tested. Which GI50 (UACC-257) did it give?
The GI50 was 3.41 µM (inactive).

What about the GI50 (HT-29) of the same molecule?
The GI50 was 1.42 µM (inactive).

What about the GI50 (HCC 2998) of the same molecule?
The GI50 was 1.82 µM (inactive).

And the GI50 (MDA-MB-435)?
Its GI50 is 1.41 µM (inactive).

What about the GI50 (M14) of the same molecule?
Its GI50 is 2.25 µM (inactive).

What about the GI50 (SK-MEL-28) of the same molecule?
The GI50 was 1.93 µM (inactive).

And the GI50 (SN12C)?
The GI50 was 2.04 µM (inactive).

And the GI50 (HL-60)?
Its GI50 is 1.52 µM (inactive).

What about the GI50 (OVCAR-3) of the same molecule?
The GI50 was 2.23 µM (inactive).

What about the GI50 (HOP-92) of the same molecule?
Its GI50 is 4.49 µM (inactive).

What about the GI50 (SF-295) of the same molecule?
The GI50 was 2.03 µM (inactive).

What about the GI50 (OVCAR-8) of the same molecule?
The GI50 was 3.05 µM (inactive).

And the GI50 (HOP-62)?
Its GI50 is 2.67 µM (inactive).

What about the GI50 (SNB-75) of the same molecule?
Its GI50 is 1.06 µM (active).

Source: ChEMBL document CHEMBL1201862, “PubChem BioAssay data set” (2004)
